Data as given in patent US9370189B2, “Controlling Pseudomonas aeruginosa persister cells with GM-CSF” (priority 2012, dated 2016).

Legend:
whole cells of E. coli = assay: GM-CSF binding assay to bacterial whole cells (slot blot immunoblotting); parameters: species or system Escherichia coli; conditions: PBS, room temperature, 2 h, anti-rhGM-CSF immunoblot (FIG. 21)
Procedure: This Example describes experiments conducted to determine the capability of GM-CSF to bind to whole cells of P. aeruginosa and E. coli. In brief, bacteria harvested at stationary phases of growth were washed with PBS and adjusted to OD600 of 0.4 with PBS to ensure that an equal amount of cells was used for all GF-CSF binding tests. Suspensions of bacteria (10^6 CFU) were then incubated with and without different amount of recombinant human GM-CSF (rhGM-CSF, R&D systems) in a 40 μL volume at room temperature for 2 hours. After incubation, the cell suspension was centrifuged to separate supernatant (comprising buffer and unbound GM-CSF) and pellet (comprising cell and bound GM-CSF, if any), followed by the addition of 10 mM EDTA and boiling for 30 minutes to inactivate bacterial alkaline phosphatase activity. As control, PBS buffer with GM-CSF were processed in the similar manner. All the samples were then applied to Slot Blot (BioRad) for immunoblotting experiments. Anti-rhGMCSF developed in mice (Human GM-CSF MAb, Mouse IgG1, R&D system) was used as first antibody; Alkaline Phosphatase conjugated with Anti-mouse IgG was used to detect the binding of GM-CSF with BCIP/NBT (Promega) as substrates.

[1] = system: P. aeruginosa PDO300 biofilm; assay: Effect of GM-CSF on 24-h PDO300 biofilm, alone and with antibiotic; type: cell-based, Pseudomonas aeruginosa; conditions: for average CFU/ml of biofilm cells reduced by: reduction, PDO300 biofilm
Procedure: (§1) This Example describes the treatment of biofilms made from P. aeruginosa PAO1, PDO300 and Escherichia coli K12, with GM-CSF introduced directly or together with an antibiotic to test the synergy.
(§2) In brief, after preparing an overnight culture, it was subcultured to an initial OD600 of 0.01 to a total volume of 20 mL M63 medium (for PAO1 and PDO300) or 20 ml LB medium (for E. coli K12) in a petri dish with 316L stainless steel coupons (1.75 cm×1 cm). The biofilm was grown for 24 h at 37° C. without shaking. After incubation, the coupons were washed by gently dipping in 0.85% NaCl twice using tweezers and were placed in new empty petri dishes.
(§3) To test the synergistic effects between GM-CSF (2.43 pg/mL or 0.17 pM) and antibiotics, a total of 8 coupons were analyzed. These 8 coupons were placed in 4 petri dishes (2 coupons in each dish). The two dishes were labeled as control and the other two as treatment samples. In the treatment samples, GM-CSF was added to 20 mL of 0.85% NaCl to a concentration of 2.43 pg/mL (or 0.17 pM). The control samples were supplemented with the same amount of PBS and BSA as present in the samples with 2.43 pg/ml (or 0.17 pM) GM-CSF. The coupons were incubated at 37° C. for 2 h.
(§4) After incubation, a control dish and a treatment dish was selected for studying the killing effect of 2.43 pg/ml GM-CSF on biofilm cells. Each coupon after gentle washing with 0.85% NaCl buffer, was placed in a test tube with 3 mL 0.85% NaCl buffer in each. They were sonicated (B200, Sinosonic Industrial Co., Ltd., Taiwan) for 4 mins to release the biofilm cells in the buffer. After vortexing for 1 min, they were plated on LB agar plates using drop plate method. The CFU was counted after incubation at 37° C. for 24 h to count the total number of viable cells. Furthermore, the synergistic effect of antibiotics with GM-CSF was evaluated with additional 3.5 h treatment with antibiotic at 37° C. After incubation, drop plate method was performed and the CFU was counted to understand if there is a synergistic effect.

[2] = system: P. aeruginosa PAO1 biofilm; assay: Effect of GM-CSF on 24-h PAO1 biofilm, alone and with antibiotic; type: cell-based, Pseudomonas aeruginosa
Procedure: as §1, §2, §3, §4

GM-CSF: granulocyte macrophage-colony stimulating factor, a cytokine secreted by macrophages; recombinant human GM-CSF (R&D systems) in binding tests
binding to whole cells (whole cells of E. coli): not | % change in avg. CFU/ml after adding factor + CIP ([1]; 24-h PDO300 biofilm, 2.43 pg/mL GM-CSF with 200 μg/mL ciprofloxacin): −14.0% | % change in avg. CFU/ml after adding factor + TOB ([1]; 24-h PDO300 biofilm, 2.43 pg/mL GM-CSF with 200 μg/mL tobramycin): −13.0% | % change in avg. CFU/ml after adding factor + GEN ([1]; 24-h PDO300 biofilm, 2.43 pg/ml GM-CSF with 200 μg/mL gentamicin): −10.8% | % change in avg. CFU/ml after adding factor + TET ([1]; 24-h PDO300 biofilm, 2.43 pg/ml GM-CSF with 200 μg/mL tetracycline): −7.3% | average CFU/ml of biofilm cells reduced by ([1]; 2.43 pg/mL GM-CSF alone, average of 2 experiments): 5.64% | average CFU/ml of biofilm cells reduced by ([1]; 2.43 pg/mL GM-CSF in the presence of 200 μg/mL ciprofloxacin): 8.8% | average CFU/ml of biofilm cells reduced by ([1]; 2.43 pg/mL GM-CSF in the presence of 200 μg/mL gentamicin): 5.6% | average CFU/ml of biofilm cells reduced by ([1]; 2.43 pg/mL GM-CSF in the presence of 200 μg/mL tetracycline): 1.8% | average CFU/ml of biofilm cells reduced by ([1]; 2.43 pg/mL GM-CSF in the presence of 200 μg/mL tobramycin): 7.7% | % change in avg. CFU/ml after adding factor + CIP ([2]; 24-h PAO1 biofilm, 2.43 pg/mL GM-CSF with 200 μg/mL ciprofloxacin): −23.8% | % change in avg. CFU/ml after adding factor + TET ([2]; 24-h PAO1 biofilm, 2.43 pg/mL GM-CSF with 200 μg/mL tetracycline): −10.0% | % change in avg. CFU/ml after adding factor + TOB ([2]; 24-h PAO1 biofilm, 2.43 pg/mL GM-CSF with 200 μg/mL tobramycin): −34.1% | % change in avg. CFU/ml after adding factor + GEN ([2]; 24-h PAO1 biofilm, 2.43 pg/mL GM-CSF with 250 μg/mL gentamycin): −12.9% | average CFU/ml of biofilm cells reduced by ([2]; reduction, PAO1 biofilm, 2.43 pg/mL GM-CSF alone, average of 2 experiments): 1.3% | average CFU/mL of biofilm cells reduced by ([2]; reduction, PAO1 biofilm, 2.43 pg/mL GM-CSF in the presence of 200 μg/mL ciprofloxacin): 22.8% | average CFU/mL of biofilm cells reduced by ([2]; reduction, PAO1 biofilm, 2.43 pg/mL GM-CSF in the presence of 200 μg/mL tetracycline): 7.5% | average CFU/mL of biofilm cells reduced by ([2]; reduction, PAO1 biofilm, 2.43 pg/mL GM-CSF in the presence of 200 μg/mL tobramycin): 33.3% | average CFU/mL of biofilm cells reduced by ([2]; reduction, PAO1 biofilm, 2.43 pg/mL GM-CSF in the presence of 250 μg/mL gentamicin): 10.5%
